Values quoted from earlier work, collected in patent US11220530B2, “Nanospheres of SEC14-like proteins and cognate ligands” (UNIVERSITÄT BERN, priority 2016, dated 2022).

Biological target: Cellular retinaldehyde-binding protein (CRALBP) (Bos taurus, UniProt P10123)
Conditions: for Kd: cited from Saari and Bredberg, J Biol Chem 1987, read-out: Kd (affinity for CRALBP)

Cellular retinaldehyde-binding protein (CRALBP), sequence (P10123 whole entry): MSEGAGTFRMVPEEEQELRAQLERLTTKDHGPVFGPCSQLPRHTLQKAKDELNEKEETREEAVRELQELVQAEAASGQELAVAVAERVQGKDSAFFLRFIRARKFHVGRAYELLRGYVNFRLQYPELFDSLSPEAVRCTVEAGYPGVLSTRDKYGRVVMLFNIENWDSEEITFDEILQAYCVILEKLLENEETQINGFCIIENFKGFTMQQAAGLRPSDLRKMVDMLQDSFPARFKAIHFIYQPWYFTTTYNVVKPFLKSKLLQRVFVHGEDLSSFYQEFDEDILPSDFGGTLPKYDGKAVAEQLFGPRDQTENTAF

Row | Structure (SMILES) | Kd | binding to CRALBP (same cited study)
1 | CC1=C(/C=C/C(C)=C\C=C\C(C)=C\C=O)C(C)(C)CCC1 [9-cis-retinal] | 53 nM | 
2 | CC1=C(/C=C/C(C)=C/C=C/C(C)=C/C=O)C(C)(C)CCC1 [11-cis-retinal] | 20 nM | 
3 | CC1=C(/C=C/C(C)=C/C=C/C(C)=C/C=O)C(C)(C)CCC1 [13-cis] |  | does not bind
4 | CC1=C(/C=C/C(C)=C/C=C\C(C)=C\CO)C(C)(C)CCC1 [11-cis-retinol] | 60 nM | 
